Experiment [1] deals with T1, dopamine D2 receptors (Homo sapiens (Human), UniProt P14416). Put plainly: β-arrestin2 recruitment BRET, dopamine D2 receptor functional activity. It counts as cell-based. Conditions: for EC50: HEK-293T, I-1 to 19 n=3, I-20 to 27 single determination, read-out: β-arrestin2 BRET EC50; for Emax: relative to the endogenous ligand dopamine, read-out: β-arrestin2 BRET Emax % ± SEM. On the technique in general: Activated receptors often draw arrestin, which recruitment assays turn into a signal.

The target of experiment [2] is T1, dopamine D2 receptors. Put plainly: Radioligand competition binding, affinity for dopamine D2 receptors ([3H]-Methylspiperone). The following applies: [3H]-Methylspiperone (0.3-0.5 nM), HEK-293T membranes; for Ki: I-1 to 19 n=3, I-20 to 27 single determination; for Affinity pKi ± SEM: n=3.

T1 sequence (P14416 whole entry): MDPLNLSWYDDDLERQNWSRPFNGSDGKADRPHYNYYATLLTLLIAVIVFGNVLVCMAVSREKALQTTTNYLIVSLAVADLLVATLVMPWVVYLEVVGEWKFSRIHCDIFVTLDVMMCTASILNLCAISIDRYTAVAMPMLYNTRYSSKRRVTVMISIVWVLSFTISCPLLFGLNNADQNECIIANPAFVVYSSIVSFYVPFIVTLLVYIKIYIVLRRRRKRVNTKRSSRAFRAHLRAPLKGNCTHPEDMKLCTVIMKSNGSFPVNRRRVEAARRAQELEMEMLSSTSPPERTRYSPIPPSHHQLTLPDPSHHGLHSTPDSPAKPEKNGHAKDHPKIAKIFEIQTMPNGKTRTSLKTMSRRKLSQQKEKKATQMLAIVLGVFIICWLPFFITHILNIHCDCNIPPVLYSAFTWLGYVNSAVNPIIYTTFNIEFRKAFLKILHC

The term EC50 denotes the concentration giving half of the maximal effect. One may read the Emax as the size of the effect at its maximum, as opposed to the concentration needed. A word on the Ki: it is the dissociation constant of the complex between target and ligand, obtained from inhibition or displacement. Low values mean higher affinity, high ones lower affinity. Regarding `O=c1ccc2ccc(OCCCCN3CCN4c5cccc6[nH]cc(c56)CC4C3)cc2[nH]1` (racemic) [Compound I-2, 7-(4(4,6,6a,7,9,10-hexahydro-8H-pyrazino[1,2-a]pyrrolo[4,3,2-de]quinolin-8-yl)butoxy)quinolin-2(1H)-one], on dopamine D2 receptors [1], the EC50 was found to be 49 nM and the Emax is 103%. This compound also returned a Ki at dopamine D2 receptors [2] of 9.03 nM.
Turning to `CN(C)C(=O)N[C@H]1CC[C@H](CCN2CCN3c4cccc5[nH]cc(c45)C[C@@H]3C2)CC1` [(+)-I-10], on dopamine D2 receptors [1], the EC50 worked out at 5.25 nM and the maximal effect (Emax) came to 90%. Further, at dopamine D2 receptors [2], the Ki is 1140 nM and the “Affinity pKi ± SEM” value is on record as “(5.95 ± 0.17)”.
The like results for `CN(C)C(=O)N[C@H]1CC[C@H](CCN2CCN3c4cccc5[nH]cc(c45)C[C@H]3C2)CC1` [(−)-I-10] were, in that order, 2.75 nM, 89%, 22.4 nM and “(7.65 ± 0.08)”.
For the compound `O=C1CCc2ccc(OCCCCN3CCN4c5cccc6[nH]cc(c56)CC4C3)cc2N1` (stereo not drawn) [Compound I-1, 7-(4(4,6,6a,7,9,10-hexahydro-8H-pyrazino[1,2-a]pyrrolo[4,3,2-de]quinolin-8-yl)butoxy)-3,4-dihydroquinolin-2(1H)-one], on dopamine D2 receptors [1], the half-maximal effective concentration (EC50) worked out at 56.2 nM and the Emax is 100%. On dopamine D2 receptors [2], the Ki came out at 33.6 nM and the “Affinity pKi ± SEM” value is “(7.47 ± 0.16)”.

The values are drawn from patent US20240124456A1, “AZA-ERGOLINE DERIVATIVE AND PREPARATION METHOD THEREFOR AND APPLICATION THEREOF” (SHANGHAITECH UNIVERSITY, priority 2021, published 2024).
